Results published in publication PMC9847679, “The anti-breast cancer stem cell properties of gold(I)-non-steroidal anti-inflammatory drug complexes” (Chemical Science, 2022).

Legend:
HMLER cells = assay: Monolayer cytotoxicity (MTT assay), HMLER cells; format: cell-based, human; conditions: 72 h incubation, MTT
Description: (§1) Cell Lines and Cell Culture Conditions. The human mammary epithelial HMLER and HMLER-shEcad cell lines were kindly donated by Prof. R. A. Weinberg (Whitehead Institute, MIT). The human epithelial breast MCF10A, breast adenocarcinoma MDA-MB-231 and MDA-MB-468, murine epithelial breast 4T1, and embryonic kidney HEK 293 cell lines were acquired from American Type Culture Collection (ATCC, Manassas, VA, USA).
(§2) HMLER, HMLER-shEcad, and MCF10A cells were maintained in Mammary Epithelial Cell Growth Medium (MEGM) with supplements and growth factors (BPE, hydrocortisone, hEGF, insulin, and gentamicin/amphotericin-B). MDA-MB-231, MDA-MB-468, 4T1, and HEK 293 cells were maintained in Dulbecco's Modified Eagle's Medium (DMEM) supplemented with fetal bovine serum (10 %) and penicillin/streptomycin (1 %). The cells were grown at 310 K in a humidified atmosphere containing 5% CO2.
(§3) Monolayer Cytotoxicity Studies. Exponentially growing cells were seeded at a density of approximately 5 × 10^3 cells per well in 96-well flat-bottomed microplates and allowed to attach for 24 h prior to addition of compounds. Various concentrations of the test compounds (0.0004-100 μM) were added and incubated for 72 h at 37 °C (total volume 200 μl). Stock solutions of the compounds were prepared as 10 mM DMSO solutions and diluted using cell […]
(§4) media. The final concentration of DMSO in each well was ≤1 %. After 72 h, 20 μl of MTT (4 mg mL-1 in PBS) was added to each well and the plates incubated for an additional 4 h at 37 °C. The media/MTT mixture was eliminated and DMSO (100 μl per well) was added to dissolve the formazan precipitates. The optical density was measured at 550 nm using a 96-well multiscanner autoreader. Absorbance values were normalised to (DMSO-containing) control wells and plotted as concentration of test compound versus % cell viability. IC50 values were interpolated from the resulting dose dependent curves. The reported IC50 values are the average of three independent experiments (n = 18). […]
(§5) After incubation for 16 […]
(§6) h, the fluorescence of the solutions was read at 590 nm (λex = 560 nm). Viable mammospheres reduce the amount of the oxidised TOX8 form (blue) and concurrently increase the amount of the fluorescent TOX8 intermediate (red), indicating the degree of mammosphere cytotoxicity caused by the test compound. […]
(§7) Cellular Uptake. To measure the cellular uptake of 1-3 about 1 million HMLER-shEcad cells were treated with 1-3 (0.25 μM) at 37 °C for 24 h. After incubation, the media was removed, the cells were washed with PBS (2 mL × 3) and harvested. The number of cells was counted at this stage, using a haemocytometer. This mitigates any cell death induced by 1-3 at the administered concentration and experimental cell loss. The cellular pellets were dissolved in 65% HNO3 (250 µL) overnight. A cellular pellet of HMLER-shEcad cells treated with 1 was also used to determine the gold content in the nuclear, cytoplasmic and membrane fractions. The Thermo Scientific NE-PER Nuclear and Cytoplasmic Extraction Kit was used to extract and separate the nuclear, cytoplasmic and membrane fractions. The fractions were dissolved in 65% HNO3 (250 µL final volume) overnight. All samples were diluted 17-fold with water and analysed using inductively coupled plasma mass spectrometry (ICP-MS, Thermo Scientific ICAP-Qc quadrupole ICP mass spectrometer). Gold levels are expressed as mass of Au (ng) per million cells. Results are presented as the mean of four determinations for each data point.
(§8) Intracellular ROS Assay. […]

HMLER-shEcad cells [1] = assay: Monolayer cytotoxicity (MTT assay), HMLER-shEcad cells; format: cell-based, human; conditions: 72 h incubation, MTT
Description: as §1, §2, §3, §4, §5, §6, §7, §8

[2] = Reaction with thiol-containing biomolecules (1H and 31P NMR); conditions: 10 mM in DMSO-d6, 37 °C, 72 h
Method: As the mechanism of toxicity of many gold(I) complexes is associated to their interaction with thiol groups in proteins,[23] the reaction of 1 with N-acetylcysteine (NAC) and glutathione (GSH), model thiol-containing biomolecules, was probed using ^1H and ^31P{^1H} NMR spectroscopy studies (over 72 h at 37 °C). […] The ^31P{^1H} NMR studies also indicated the immediate formation of [Au^I(NAC)(PPh3)] or [Au^I(GSH)(PPh3)] (Fig. S50–S51 ^†). [Au^I(NAC)(PPh3)] and [Au^I(GSH)(PPh3)] were independently prepared in situ by reacting [Au^I(acac)(PPh3)][58] with NAC or GSH in DMSO-d6, to confirm the abovementioned assignments.

HMLER-shEcad cells [3] = assay: Intracellular ROS assay (DCFH-DA, flow cytometry); format: cell-based, human; conditions: 0.4 μM
Method: media. The final concentration of DMSO in each well was ≤1 %. After 72 h, 20 μl of MTT (4 mg mL-1 in PBS) was added to each well and the plates incubated for an additional 4 h at 37 °C. The media/MTT mixture was eliminated and DMSO (100 μl per well) was added to dissolve the formazan precipitates. The optical density was measured at 550 nm using a 96-well multiscanner autoreader. Absorbance values were normalised to (DMSO-containing) control wells and plotted as concentration of test compound versus % cell viability. IC50 values were interpolated from the resulting dose dependent curves. The reported IC50 values are the average of three independent experiments (n = 18).
Tumorsphere Formation and Viability Assay. […] Mammospheres treated with 1-3, 5-fluorouracil, capecitabine, cisplatin, carboplatin, and salinomycin (at their respective IC20 values, 5 days) were counted and imaged using an inverted microscope. The viability of the mammospheres was determined by addition of a resazurin-based reagent, TOX8 (Sigma). After incubation for 16 h, the fluorescence of the solutions was read at 590 nm (λex = 560 nm). […] Fluorescence values were normalised to DMSO-containing controls and plotted as concentration of test compound versus % mammospheres viability. […]
Cellular Uptake. […] The number of cells was counted at this stage, using a haemocytometer. […] Gold levels are expressed as mass of Au (ng) per million cells. […]

Structure (SMILES): COc1ccc2c(c1)c(CC(=O)[O][Au][PH](c1ccccc1)(c1ccccc1)c1ccccc1)c(C)n2C(=O)c1ccc(Cl)cc1 [complex 1]
- IC50 (HMLER cells): 190 ± 10 nM
- IC50 (HMLER-shEcad cells [1]): 56 ± 1 nM
- reaction with stoichiometric NAC or GSH [2]: The reaction occurred immediately
- increase in intracellular ROS levels (HMLER-shEcad cells [3]; 6 h exposure (peak)): 104%
- increase in intracellular ROS levels (HMLER-shEcad cells [3]; prolonged (16–24 h) exposure): statistically insignificant increases in ROS levels
